Test results as given in patent publication US9695155B2, “Herbicidal substituted pyrimidinyloxy benzene compounds” (E. I. DU PONT DE NEMOURS AND COMPANY, priority 2013, dated 2017).

Assays:
[1] = system: bromegrass, downy; experiment: Test D postemergence; type: in vivo, Bromus tectorum; settings: Bromus tectorum, post-emergence, Postemergence, scale 0 to 100 (0 no effect, 100 complete control), read-out: Plant response rating, Bromegrass, Downy; for pest or weed control at 16 g/ha: 16 g ai/ha; for pest or weed control at 31 g/ha: 31 g ai/ha; for pest or weed control at 62 g/ha: 62 g ai/ha; for pest or weed control at 125 g/ha: 125 g ai/ha
Source text: (§1) Seeds of plant species selected from bluegrass (annual bluegrass, Poa annua), blackgrass (Alopecurus myosuroides), canarygrass (littleseed canarygrass, Phalaris minor), chickweed (common chickweed, Stellaria media), galium (catchweed bedstraw, Galium aparine), bromegrass, downy (downy bromegrass, Bromus tectorum), field poppy (Papaver rhoeas), field violet (Viola arvensis), green foxtail (Setaria viridis), deadnettle (henbit deadnettle, Lamium amplexicaule), Italian ryegrass (Lolium multiflorum), kochia (Kochia scoparia), lambsquarters (Chenopodium album), oilseed rape (Brassica napus), pigweed (Amaranthus retroflexus), chamomile (scentless chamomile, Matricaria inodora), Russian thistle (Salsola kali), speedwell (bird's-eye speedwell, Veronica persica), spring barley (Hordeum vulgare), spring wheat (Triticum aestivum), wild buckwheat (Polygonum convolvulus), wild mustard (Sinapis arvensis), wild oat (Avena fatua), wild radish (Raphanus raphanistrum), windgrass (Apera spica-venti), winter barley (Hordeum vulgare), and winter wheat (Triticum aestivum) were planted into a silt loam soil and treated preemergence with test chemicals formulated in a non-phytotoxic solvent mixture which included a surfactant.
(§2) At the same time, these species were planted in pots containing Redi-Earth® planting medium (Scotts Company, 14111 Scottslawn Road, Marysville, Ohio 43041) comprising spaghnum peat moss, vermiculite, wetting agent and starter nutrients and treated with postemergence applications of the test chemicals formulated in the same manner. Plants ranged in height from 2 to 18 cm (1- to 4-leaf stage). Treated plants and controls were maintained in a controlled growth environment for 7 to 21 days after which time all species were compared to controls and visually evaluated. Plant response ratings, summarized in Table D, are based on a scale of 0 to 100 where 0 is no effect and 100 is complete control. A dash (-) response means no test result.

[2] = system: spring barley; experiment: Test D postemergence; type: in vivo, Hordeum vulgare; settings: Hordeum vulgare, post-emergence, Postemergence, scale 0 to 100 (0 no effect, 100 complete control), read-out: Plant response rating, Barley, Spring; for plant injury at 16 g/ha: 16 g ai/ha; for plant injury at 31 g/ha: 31 g ai/ha; for plant injury at 62 g/ha: 62 g ai/ha; for plant injury at 125 g/ha: 125 g ai/ha
Source text: as §1, §2

[3] = system: winter barley; experiment: Test D postemergence; type: in vivo, Hordeum vulgare; settings: Hordeum vulgare, post-emergence, Postemergence, scale 0 to 100 (0 no effect, 100 complete control), read-out: Plant response rating, Barley, Winter; for plant injury at 16 g/ha: 16 g ai/ha; for plant injury at 31 g/ha: 31 g ai/ha; for plant injury at 62 g/ha: 62 g ai/ha; for plant injury at 125 g/ha: 125 g ai/ha
Source text: as §1, §2

[4] = system: pigweed; experiment: Test D preemergence; type: in vivo, Amaranthus retroflexus; settings: Amaranthus retroflexus, pre-emergence; for pest or weed control at 16 g/ha: 16 g ai/ha; for pest or weed control at 16 g/ha / pest or weed control at 31 g/ha: scale 0 (no effect) to 100 (complete control), read-out: Plant response rating, Pigweed; for pest or weed control at 31 g/ha: 31 g ai/ha; for pest or weed control at 62 g/ha: 62 g ai/ha; for pest or weed control at 62 g/ha / pest or weed control at 125 g/ha: scale 0-100, read-out: Plant response rating, Pigweed; for pest or weed control at 125 g/ha: 125 g ai/ha
Source text: as §1, §2

[5] = system: oilseed rape; experiment: Test D postemergence; type: in vivo, Brassica napus; settings: Brassica napus, post-emergence; for plant injury at 16 g/ha: 16 g ai/ha, scale 0-100, read-out: Plant response rating, Oilseed Rape; for plant injury at 31 g/ha: 31 g ai/ha; for plant injury at 31 g/ha / plant injury at 62 g/ha / plant injury at 125 g/ha: scale 0 to 100 (0 no effect, 100 complete control), read-out: Plant response rating, Oilseed Rape; for plant injury at 62 g/ha: 62 g ai/ha; for plant injury at 125 g/ha: 125 g ai/ha
Source text: as §1, §2

[6] = system: wild radish; experiment: Test D preemergence; type: in vivo, Raphanus raphanistrum; settings: Raphanus raphanistrum, pre-emergence; for pest or weed control at 16 g/ha: 16 g ai/ha; for pest or weed control at 16 g/ha / pest or weed control at 31 g/ha: scale 0 (no effect) to 100 (complete control), read-out: Plant response rating, Radish, Wild; for pest or weed control at 31 g/ha: 31 g ai/ha; for pest or weed control at 62 g/ha: 62 g ai/ha; for pest or weed control at 62 g/ha / pest or weed control at 125 g/ha: scale 0-100, read-out: Plant response rating, Radish, Wild; for pest or weed control at 125 g/ha: 125 g ai/ha
Source text: as §1, §2

[7] = system: field poppy; experiment: Test D postemergence; type: in vivo, Papaver rhoeas; settings: Papaver rhoeas, post-emergence; for pest or weed control at 16 g/ha: 16 g ai/ha, scale 0-100, read-out: Plant response rating, Field Poppy; for pest or weed control at 31 g/ha: 31 g ai/ha; for pest or weed control at 31 g/ha / pest or weed control at 62 g/ha / pest or weed control at 125 g/ha: scale 0 to 100 (0 no effect, 100 complete control), read-out: Plant response rating, Field Poppy; for pest or weed control at 62 g/ha: 62 g ai/ha; for pest or weed control at 125 g/ha: 125 g ai/ha
Source text: as §1, §2

[8] = system: wild mustard; experiment: Test D preemergence; type: in vivo, Sinapis arvensis; settings: Brassica, pre-emergence; for pest or weed control at 16 g/ha: 16 g ai/ha, scale 0 (no effect) to 100 (complete control), read-out: Plant response rating, Mustard, Wild; for pest or weed control at 31 g/ha: 31 g ai/ha; for pest or weed control at 31 g/ha / pest or weed control at 62 g/ha / pest or weed control at 125 g/ha: scale 0-100, read-out: Plant response rating, Mustard, Wild; for pest or weed control at 62 g/ha: 62 g ai/ha; for pest or weed control at 125 g/ha: 125 g ai/ha
Source text: as §1, §2

[9] = system: chamomile; experiment: Test D preemergence; type: in vivo, Matricaria inodora; settings: Tripleurospermum inodorum, pre-emergence; for pest or weed control at 16 g/ha: 16 g ai/ha, scale 0 (no effect) to 100 (complete control), read-out: Plant response rating, Chamomile; for pest or weed control at 31 g/ha: 31 g ai/ha; for pest or weed control at 31 g/ha / pest or weed control at 62 g/ha / pest or weed control at 125 g/ha: scale 0-100, read-out: Plant response rating, Chamomile; for pest or weed control at 62 g/ha: 62 g ai/ha; for pest or weed control at 125 g/ha: 125 g ai/ha
Source text: as §1, §2

FC(F)(F)COc1cnn(-c2ccccc2Oc2ncc(Cl)cn2)c1 [Compound 138, 5-chloro-2-[2-[4-(2,2,2-trifluoroethoxy)-1H-pyrazol-1-yl]phenoxy]pyrimidine]
pest or weed control at 16 g/ha [1]: 0% | pest or weed control at 31 g/ha [1]: 0% | pest or weed control at 62 g/ha [1]: 5% | pest or weed control at 125 g/ha [1]: 5% | plant injury at 16 g/ha [2]: 10% | plant injury at 31 g/ha [2]: 10% | plant injury at 62 g/ha [2]: 10% | plant injury at 125 g/ha [2]: 15% | plant injury at 16 g/ha [3]: 5% | plant injury at 31 g/ha [3]: 5% | plant injury at 62 g/ha [3]: 5% | plant injury at 125 g/ha [3]: 10% | pest or weed control at 16 g/ha [4]: 0% | pest or weed control at 31 g/ha [4]: 25% | pest or weed control at 62 g/ha [4]: 100% | pest or weed control at 125 g/ha [4]: 100% | plant injury at 16 g/ha [5]: 70% | plant injury at 31 g/ha [5]: 70% | plant injury at 62 g/ha [5]: 75% | plant injury at 125 g/ha [5]: 75% | pest or weed control at 16 g/ha [6]: 90% | pest or weed control at 31 g/ha [6]: 85% | pest or weed control at 62 g/ha [6]: 70% | pest or weed control at 125 g/ha [6]: 85% | pest or weed control at 16 g/ha [7]: 30% | pest or weed control at 31 g/ha [7]: 35% | pest or weed control at 62 g/ha [7]: 40% | pest or weed control at 125 g/ha [7]: 75% | pest or weed control at 16 g/ha [8]: 55% | pest or weed control at 31 g/ha [8]: 65% | pest or weed control at 62 g/ha [8]: 100% | pest or weed control at 125 g/ha [8]: 100%

FC(F)(F)c1cn(-c2ccccc2Oc2ncc(Cl)cn2)nn1 [Compound 166, 5-chloro-2-[2-[4-(trifluoromethyl)-1H-1,2,3-triazol-1-yl]phenoxy]pyrimidine]
pest or weed control at 16 g/ha [1]: 15% | pest or weed control at 31 g/ha [1]: 20% | pest or weed control at 62 g/ha [1]: 35% | pest or weed control at 125 g/ha [1]: 50% | plant injury at 16 g/ha [2]: 10% | plant injury at 31 g/ha [2]: 20% | plant injury at 62 g/ha [2]: 30% | plant injury at 125 g/ha [2]: 45% | plant injury at 16 g/ha [3]: 5% | plant injury at 31 g/ha [3]: 15% | plant injury at 62 g/ha [3]: 25% | plant injury at 125 g/ha [3]: 35% | pest or weed control at 16 g/ha [4]: 100% | pest or weed control at 31 g/ha [4]: 100% | pest or weed control at 62 g/ha [4]: 100% | pest or weed control at 125 g/ha [4]: 100% | pest or weed control at 16 g/ha [9]: 5% | pest or weed control at 31 g/ha [9]: 25% | pest or weed control at 62 g/ha [9]: 50% | pest or weed control at 125 g/ha [9]: 55% | plant injury at 16 g/ha [5]: 60% | plant injury at 31 g/ha [5]: 65% | plant injury at 62 g/ha [5]: 95% | plant injury at 125 g/ha [5]: 100% | pest or weed control at 16 g/ha [6]: 55% | pest or weed control at 31 g/ha [6]: 80% | pest or weed control at 62 g/ha [6]: 100% | pest or weed control at 125 g/ha [6]: 100% | pest or weed control at 16 g/ha [7]: 40% | pest or weed control at 31 g/ha [7]: 60% | pest or weed control at 62 g/ha [7]: 80% | pest or weed control at 125 g/ha [7]: 75% | pest or weed control at 16 g/ha [8]: 65% | pest or weed control at 31 g/ha [8]: 95% | pest or weed control at 62 g/ha [8]: 100% | pest or weed control at 125 g/ha [8]: 100%

Fc1cccc(Oc2ncc(Cl)cn2)c1-n1cc(Br)cn1 [Compound 178, 2-[2-(4-bromo-1H-pyrazol-1-yl)-3-fluorophenoxy]-5-chloropyrimidine]
pest or weed control at 16 g/ha [1]: 5% | pest or weed control at 31 g/ha [1]: 5% | pest or weed control at 62 g/ha [1]: 10% | pest or weed control at 125 g/ha [1]: 20% | plant injury at 16 g/ha [2]: 0% | plant injury at 31 g/ha [2]: 5% | plant injury at 62 g/ha [2]: 5% | plant injury at 125 g/ha [2]: 10% | plant injury at 16 g/ha [3]: 0% | plant injury at 31 g/ha [3]: 0% | plant injury at 62 g/ha [3]: 5% | plant injury at 125 g/ha [3]: 10% | pest or weed control at 16 g/ha [4]: 75% | pest or weed control at 31 g/ha [4]: 100% | pest or weed control at 62 g/ha [4]: 100% | pest or weed control at 125 g/ha [4]: 100% | pest or weed control at 16 g/ha [9]: 0% | pest or weed control at 31 g/ha [9]: 70% | pest or weed control at 62 g/ha [9]: 55% | pest or weed control at 125 g/ha [9]: 60% | plant injury at 16 g/ha [5]: 60% | plant injury at 31 g/ha [5]: 65% | plant injury at 62 g/ha [5]: 80% | plant injury at 125 g/ha [5]: 90% | pest or weed control at 16 g/ha [6]: 55% | pest or weed control at 31 g/ha [6]: 90% | pest or weed control at 62 g/ha [6]: 100% | pest or weed control at 125 g/ha [6]: 100% | pest or weed control at 16 g/ha [7]: 45% | pest or weed control at 31 g/ha [7]: 55% | pest or weed control at 62 g/ha [7]: 65% | pest or weed control at 125 g/ha [7]: 75% | pest or weed control at 16 g/ha [8]: 25% | pest or weed control at 31 g/ha [8]: 35% | pest or weed control at 62 g/ha [8]: 95% | pest or weed control at 125 g/ha [8]: 95%
